US11274073B2, “TRPV1 modulator compounds” (ANTALGENICS, S.L., priority 2017, dated 2022)

Molecular target: T1, rat TRPV1 channel (Rattus norvegicus, UniProt O35433)
T1 construct: expressed in transfected cells; host or cells: SH-SY5Y (human neuroblastoma) stably expressing rat TRPV1, under puromycin selection
Test: Calcium microfluorometry assay on TRPV1-SH-SY5Y cells, single concentration 10 μM
Type: cell-based
Settings: for TRPV1 blockage at 10 μM (% ± SD): compound 10 μM before stimulation with 10 μM capsaicin, RR (10 μM Ruthenium Red) = 100%; for TRPV1 activation at 10 μM (% ± SD): compound 10 μM, Fluo-4 NW fluorescence, Cap (10 μM capsaicin) = 100%
Description: The activity of the compounds was determined on TRPV1 expressing cells (TRPV1-SH-SY5Y) by Calcium microfluorometry assay.
SH-SY5Y cells stably expressing rat TRPV1 channel (SH-SY5Y-TRPV1) were grown in Earle's minimum essential medium (MEM) containing 10% (v/v) of FCS, 1% nonessential amino acids, 2 mM L-glutamine, 100 μg/ml streptomycin, 100 U/ml penicillin, and 0.4 μg/ml puromycin in a humidity-controlled incubator with 5% CO2 and at 37° C. For fluorescence assays, cells expressing TRPV1 channel (TRPV1-SH-SY5Y) were seeded in 96-well plates (Corning Incorporated, Corning, N.Y.) at a cell density of 40,000 cells 2 days before treatment. The day of treatment the medium was replaced with 100 μL of the dye loading solution Fluo-4 NW supplemented with probenecid 2.5 mM. After incubation at 37° C. in a humidified atmosphere of 5% CO2 for 60 minutes, plates were transferred to a fluorescence plate reader (Polastar Omega BMG Labtech). The baseline fluorescence of Fluo-4 dye ([…]) was recorded for 4 cycles. […] The antagonist (10 μM Ruthenium Red for TRPV1) was added for the blockade. The changes in fluorescence intensity were recorded during 10 cycles more.

T1 sequence (O35433 whole entry): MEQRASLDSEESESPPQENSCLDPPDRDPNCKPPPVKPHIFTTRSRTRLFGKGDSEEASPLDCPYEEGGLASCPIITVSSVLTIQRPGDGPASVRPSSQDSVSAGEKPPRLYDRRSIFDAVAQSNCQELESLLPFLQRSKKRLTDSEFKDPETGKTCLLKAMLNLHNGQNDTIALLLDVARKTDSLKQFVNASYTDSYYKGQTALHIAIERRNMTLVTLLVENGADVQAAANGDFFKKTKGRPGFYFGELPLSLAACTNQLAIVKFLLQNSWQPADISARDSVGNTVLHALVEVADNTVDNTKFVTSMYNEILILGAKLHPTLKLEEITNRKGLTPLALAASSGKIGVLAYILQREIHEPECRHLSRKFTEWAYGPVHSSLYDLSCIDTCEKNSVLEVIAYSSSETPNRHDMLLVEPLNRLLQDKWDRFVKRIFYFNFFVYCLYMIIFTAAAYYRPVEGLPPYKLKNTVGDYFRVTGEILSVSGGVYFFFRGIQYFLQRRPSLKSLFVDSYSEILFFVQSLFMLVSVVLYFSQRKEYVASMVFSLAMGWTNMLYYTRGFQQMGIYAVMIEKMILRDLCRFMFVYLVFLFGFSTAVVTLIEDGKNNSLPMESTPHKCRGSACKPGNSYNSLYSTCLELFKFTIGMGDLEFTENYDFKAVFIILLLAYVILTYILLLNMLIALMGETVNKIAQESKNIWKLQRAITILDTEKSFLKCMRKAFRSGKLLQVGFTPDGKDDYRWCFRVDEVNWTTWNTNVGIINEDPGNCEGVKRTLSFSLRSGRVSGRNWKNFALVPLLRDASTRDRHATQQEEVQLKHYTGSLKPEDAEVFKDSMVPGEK

SMILES | TRPV1 blockage at 10 μM (% ± SD) [%] | TRPV1 activation at 10 μM (% ± SD) [%]
COc1cc(CNC(=O)COC(=O)CC/C(C)=C/CC/C(C)=C/CC/C=C(\C)CCC=C(C)CCC=C(C)C)c(I)cc1O (stereo in doubt) [Ex-53, (4E,8E,12E,16E)-2-((4-hydroxy-2-iodo-5-methoxy-benzyl)amino)-2-oxoethyl 4,8,13,17,21-pentamethyl-docosa-4,8,12,16,20-pentaenoate] | 31.05 ± 1.46 | 
COc1cc(CNC(=O)CCCC/C=C/C(C)C)ccc1O [Capsaicin, reference compound] |  | 100
CCCC(=O)OCC(=O)NCc1ccc(O)c(OC)c1 [Ex-16, 2-((4-hydroxy-3-methoxybenzyl)amino)-2-oxoethyl butyrate] |  | 25.59 ± 4.29
CCCC(=O)OCC(=O)NCc1cc(OC)c(O)cc1I [Ex-17, 2-((4-hydroxy-2-iodo-5-methoxybenzyl)amino)-2-oxoethyl butyrate] | 14.44 ± 0.27 | 
CCCCC(=O)OCC(=O)NCc1ccc(O)c(OC)c1 [Ex-18, 2-((4-hydroxy-3-methoxy-benzyl)amino)-2-oxoethyl pentanoate] |  | 29.43 ± 14.90
CCCCC(=O)OCC(=O)NCc1cc(OC)c(O)cc1I [Ex-19, 2-((4-hydroxy-2-iodo-5-methoxybenzyl)amino)-2-oxoethyl pentanoate] | 21.85 ± 2.85 | 
COc1cc(CNC(=O)COC(=O)CC(C)C)ccc1O [Ex-20, 2-((4-hydroxy-3-methoxy-benzyl)amino)-2-oxoethyl 3-methylbutanoate] |  | 35.82 ± 3.48
COc1cc(CNC(=O)COC(=O)CC(C)C)c(I)cc1O [Ex-21, 2-((4-hydroxy-2-iodo-5-methoxybenzyl)amino)-2-oxoethyl 3-methyl-butanoate] | 8.35 ± 4.10 | 
CCCCCC(=O)OCC(=O)NCc1ccc(O)c(OC)c1 [Ex-22, 2-((4-hydroxy-3-methoxy-benzyl)amino)-2-oxoethyl hexanoate] |  | 73.32 ± 12.83
CCCCCC(=O)OCC(=O)NCc1cc(OC)c(O)cc1I [Ex-23, 2-((4-hydroxy-2-iodo-5-methoxybenzyl)amino)-2-oxoethyl hexanoate] | 23.14 ± 7.81 | 
C/C=C/C=C/C(=O)OCC(=O)NCc1ccc(O)c(OC)c1 [Ex-24, (2E,4E)-2-((4-hydroxy-3-methoxybenzyl)amino)-2-oxoethyl hexa-2,4-dienoate] |  | 75.59 ± 6.25
C/C=C/C=C/C(=O)OCC(=O)NCc1cc(OC)c(O)cc1I [Ex-25, (2E,4E)-2-((4-hydroxy-2-iodo-5-methoxybenzyl)amino)-2-oxoethyl hexa-2,4-dienoate] | 13.98 ± 5.98 | 
CCCCCCC(=O)OCC(=O)NCc1ccc(O)c(OC)c1 [Ex-26, 2-((4-hydroxy-3-methoxy-benzyl)amino)-2-oxoethyl heptanoate] |  | 74.41 ± 17.66
CCCCCCC(=O)OCC(=O)NCc1cc(OC)c(O)cc1I [Ex-27, 2-((4-hydroxy-2-iodo-5-methoxybenzyl)amino)-2-oxoethyl heptanoate] | 21.80 ± 5.41 | 
CCCCCCCC(=O)OCC(=O)NCc1ccc(O)c(OC)c1 [Ex-28, 2-((4-hydroxy-3-methoxy-benzyl)amino)-2-oxoethyl octanoate] |  | 54.08 ± 4.09
CCCCCCCC(=O)OCC(=O)NCc1cc(OC)c(O)cc1I [Ex-29, 2-((4-hydroxy-2-iodo-5-methoxybenzyl)amino)-2-oxoethyl octanoate] | 31.23 ± 8.34 | 

SMILES | TRPV1 blockage at 10 μM (% ± SD) [%] | TRPV1 activation at 10 μM (% ± SD) [%]
CCCCCCCCC(=O)OCC(=O)NCc1ccc(O)c(OC)c1 [Ex-30, 2-((4-hydroxy-3-methoxybenzyl)amino)-2-oxoethyl nonanoate] |  | 68.45 ± 7.20
CCCCCCCCC(=O)OCC(=O)NCc1cc(OC)c(O)cc1I [Ex-31, 2-((4-hydroxy-2-iodo-5-methoxybenzyl)amino)-2-oxoethyl nonanoate] | 25.23 ± 7.63 | 
CCCCCCCCCC(=O)OCC(=O)NCc1ccc(O)c(OC)c1 [Ex-34, 2-((4-hydroxy-3-methoxy-benzyl)amino)-2-oxoethyl decanoate] |  | 47.91 ± 10.32
CCCCCCCCCC(=O)OCC(=O)NCc1cc(OC)c(O)cc1I [Ex-35, 2-((4-hydroxy-2-iodo-5-methoxybenzyl)amino)-2-oxoethyl decanoate] | 20.48 ± 9.67 | 
CCCCCCCCCCCCCCC(=O)OCC(=O)NCc1ccc(O)c(OC)c1 [Ex-38, 2-((4-hydroxy-3-methoxy-benzyl)amino)-2-oxoethyl pentadecanoate] |  | 75.96 ± 9.86
CCCCCCCCCCCCCCC(=O)OCC(=O)NCc1cc(OC)c(O)cc1I [Ex-39, 2-((4-hydroxy-2-iodo-5-methoxybenzyl)amino)-2-oxoethyl pentadecanoate] | 21.82 ± 4.75 | 
CCCCCCCCCCCCCCCCCC(=O)OCC(=O)NCc1ccc(O)c(OC)c1 [Ex-40, 2-((4-hydroxy-3-methoxy-benzyl)amino)-2-oxoethyl stearate] |  | 54.74 ± 17.75
CCCCCCCCCCCCCCCCCC(=O)OCC(=O)NCc1cc(OC)c(O)cc1I [Ex-41, 2-((4-hydroxy-2-iodo-5-methoxybenzyl)amino)-2-oxoethyl stearate] | 38.89 ± 3.53 | 
CCCCCCCC/C=C\CCCCCCCC(=O)OCC(=O)NCc1ccc(O)c(OC)c1 [Ex-42, 2-((4-hydroxy-3-methoxy-benzyl)amino)-2-oxoethyl oleate] |  | 77.19 ± 11.95
CCCCCCCC/C=C\CCCCCCCC(=O)OCC(=O)NCc1cc(OC)c(O)cc1I [Ex-43, 2-((4-hydroxy-2-iodo-5-methoxybenzyl)amino)-2-oxoethyl oleate] | 45.68 ± 14.26 | 
CCCCCC[C@@H](O)C/C=C\CCCCCCCC(=O)OCC(=O)NCc1ccc(O)c(OC)c1 [Ex-44, (R,Z)-2-((4-hydroxy-3-methoxybenzyl)amino)-2-oxoethyl 12-hydroxyoctadec-9-enoate] |  | 60.84 ± 12.80
CCCCCC[C@@H](O)C/C=C\CCCCCCCC(=O)OCC(=O)NCc1cc(OC)c(O)cc1I [Ex-45, (R,Z)-2-((4-hydroxy-2-iodo-5-methoxybenzyl)amino)-2-oxoethyl 12-hydroxyoctadec-9-enoate] | 21.74 ± 7.05 | 
CCCCCC[C@H](C/C=C\CCCCCCCC(=O)OCC(=O)NCc1ccc(O)c(OC)c1)OC(=O)Cc1ccccc1 [Ex-46, (Z)-2-((4-hydroxy-3-methoxy-benzyl)amino)-2-oxoethyl 12-(2-phenylacetoxy)octadec-9-enoate] |  | 33.16 ± 9.97
CCCCCC[C@H](C/C=C\CCCCCCCC(=O)OCC(=O)NCc1cc(OC)c(O)cc1I)OC(=O)Cc1ccccc1 [Ex-47, (Z)-2-((4-hydroxy-2-iodo-5-methoxybenzyl)amino)-2-oxoethyl 12-(2-phenyl-acetoxy)octadec-9-enoate] | 63.29 ± 12.80 | 
CCCCCCCC/C=C\CCCCCCCCCCCC(=O)OCC(=O)NCc1ccc(O)c(OC)c1 [Ex-48, (Z)-2-((4-hydroxy-3-methoxybenzyl)amino)-2-oxoethyl docos-13-enoate] |  | 47.40 ± 14.56
CCCCCCCC/C=C\CCCCCCCCCCCC(=O)OCC(=O)NCc1cc(OC)c(O)cc1I [Ex-49, (Z)-2-((4-hydroxy-2-iodo-5-methoxybenzyl)amino)-2-oxoethyl docos-13-enoate] | 34.94 ± 5.51 | 
